# According to patent US4097595A, “7-Amino-thiazolyl acetamido cephalosporanic acids” (Roussel Uclaf, priority 1976, dated 1978):
# Like-named read-outs stand apart in the source and are kept apart here.
# Assays:
# [1] = system: Escherichia Coli UC 1 261; assay: MIC, dilution method in liquid media, Escherichia Coli UC 1 261; type: cell-based
# Procedure: (§1) A series of tubes were prepared with the same quantity of sterile nutrive media and increasing quantities of the test product was distributed to each tube. Then, each tube was seeded with a bacterial strain and after incubation at 37° C for 24 or 48 hours, the inhibition of the growth was determined by transillumination which permitted determination of the minimum inhibitory concentrations (M.I.C.) in μg/ml.
# [2] = system: Staphylococcus aureus UC 1128 (penicillin resistant); assay: MIC, dilution method in liquid media, Staphylococcus aureus UC 1128, penicillin resistant; type: cell-based
# Procedure: as §1
# [3] = system: Proteus mirabilis No. A 235; assay: In vivo activity, experimental infection of Proteus mirabilis in mice; details: for Mice living on 8th day: subcutaneous, 1, 5 and 24 hours after infection, controls 0/10; for Mortality after 21 h 15: subcutaneous, number of dead of 10 mice, controls 10
# Procedure: The product of Example 2 was studied for its effect on an experimental infection of Proteus mirabilis in mice. Groups of 10 male mice weighing about 22.5 g were infected by an intraperitoneal injection of 0.5 ml of a 24 hour culture in Pasteur nutritive media of Proteus mirabilis No. A 235 diluted by 1/4 with distilled water.
# The mice received a subcutaneous injection 1 hour, 5 hours and 24 hours after the infection of a quantity of the product of Example 2 and the mortality was noted during 8 days.
# [4] = system: Streptococcus faecalis 5 432; assay: MIC, dilution method in liquid media, Streptococcus faecalis 5 432; type: cell-based; details: read-out: MIC
# Procedure: as §1
# [5] = system: Escherichia Coli (T) 026B6; assay: Experimental infection with Escherichia Coli (T) 026B6 in mice; type: in vivo; details: for Mice living on 8th day: subcutaneous, 1, 5 and 24 hours after infection, control 0/10
# Procedure: Again, the activity of the product of Example 2 was tested against experimental infection of Escherichia Coli in mice. Groups of 10 male mice weighing about 23 g were infected with an intraperitoneal injection of 0.5 ml of a 24 hour culture in Pasteur nutritive media of Escherichia Coli (T) 026B6 diluted by 1/6 with distilled water. The test product was administered subcutaneously one hour, five hours and 24 hours after the infection and the mortality was determined during 8 days.
# [6] = system: Escherichia Coli UC 1 020; assay: MIC, dilution method in liquid media, Escherichia Coli UC 1 020; type: cell-based; details: read-out: MIC
# Procedure: as §1
# [7] = system: Streptococcus hemolyticus; assay: MIC, dilution method in liquid media, Streptococcus hemolyticus; type: cell-based; details: Streptococcus pyogenes
# Procedure: as §1
# [8] = system: Escherichia Coli (T) 0 26 B 6; assay: MIC, dilution method in liquid media, Escherichia Coli (T) 026 B6; type: cell-based
# Procedure: as §1
# [9] = system: staphylococcus aureus 54,146; assay: In vivo activity, experimental staphylococcia in mice; details: for Mice living after 8th day: subcutaneous, 1, 5 and 24 hours after infection
# Procedure: The antibacterial activity of the compound of Example 2 was determined against experimental staphylococcia in mice. Lots of 10 male mice weighing about 21.5 g were infected by intraperitoneal injection of 0.5 ml of a 24 hour culture of staphylococcus aureus 54,146 in Pasteur nutritive broth diluted by 1/5 with distilled water. The test product was administered subcutaneously 1 hour, 5 hours and 24 hours after the infection in different doses.
# Bacillus subtilis = assay: MIC, dilution method in liquid media, Bacillus subtilis; type: cell-based; details: read-out: MIC
# Procedure: as §1
# [10] = system: Proteus mirabilis (indol); assay: MIC, dilution method in liquid media, Proteus mirabilis (indol); type: cell-based; details: read-out: MIC
# Procedure: as §1
# [11] = system: Staphylococcus aureus 54 146; assay: MIC, dilution method in liquid media, Staphylococcus aureus 54 146; type: cell-based; details: read-out: MIC
# Procedure: as §1
# [12] = system: Klebsiella pneumoniae 52 145; assay: MIC, dilution method in liquid media, Klebsiella pneumoniae 52 145; type: cell-based; details: read-out: MIC
# Procedure: as §1
# [13] = system: Staphylococcus aureus UC 1 061 (penicillin sensible); assay: MIC, dilution method in liquid media, Staphylococcus aureus UC 1061, penicillin sensible; type: cell-based; details: Staphylococcus Oxford UC 1061, penicillin sensible
# Procedure: as §1
# [14] = 0.5 mg in each injection, subcutaneous, number of dead of 10 mice
# [15] = 0.1 mg in each injection, subcutaneous, number of dead of 10 mice
# [16] = 0.25 mg in each injection, subcutaneous, number of dead of 10 mice
compound,measurement,setting,value
"CC(=O)SCC1=C(C(=O)O)N2C(=O)C(NC(=O)Cc3csc(N)n3)[C@H]2SC1 (stereo partly drawn) [Example 2, 7-[2-(2-amino-4-thiazolyl)-acetamido]-3-acetylthiomethyl-ceph-3-eme-4-carboxylic acid]",MIC,"[1]; UC1, 24 h",1 µg/mL
same,MIC,"[1]; UC1, 48 h",1 µg/mL
same,MIC,"[2]; UC1128, 24 H",1 µg/mL
same,MIC,"[2]; UC1128, 48 H",1 µg/mL
same,Mice living on 8th day,[3]; 0.1 mg in each injection,8/10
same,Mortality after 21 h 15,[3]; 0.1 mg in each injection,2
same,Mice living on 8th day,[3]; 0.25 mg in each injection,10/10
same,Mortality after 21 h 15,[3]; 0.25 mg in each injection,0
same,Mice living on 8th day,[3]; 0.5 mg in each injection,10/10
same,Mortality after 21 h 15,[3]; 0.5 mg in each injection,0
same,Mice living on 8th day,[3]; 0.75 mg in each injection,10/10
same,Mortality after 21 h 15,[3]; 0.75 mg in each injection,0
same,MIC,"[4]; Enterococcus faecalis, 5432, 24 h",5 µg/mL
same,MIC,"[4]; Enterococcus faecalis, 5432, 48 h",> 40 µg/mL
same,Mice living on 8th day,[5]; 0.5 mg in each injection,0/10
same,Mortality at 21 h 15,[5]; [14],6
same,Mortality at 24 h 15,[5]; [14],1
same,Mortality at 27 h 45,[5]; [14],1
same,Mortality at 45 h 30,[5]; [14],1
same,Mortality at 70 h,[5]; [14],1
same,Mice living on 8th day,[5]; 1 mg in each injection,9/10
same,Mortality at 30 h 45,"[5]; 1 mg in each injection, subcutaneous, number of dead of 10 mice",1
same,MIC,"[6]; UC1, 24 h",2 µg/mL
same,MIC,"[6]; UC1, 48 h",5 µg/mL
same,MIC,[7]; 24 h,0.05 µg/mL
same,MIC,"[7]; 48 H, in bacto Todd Hewitt Broth pH = 7.8, read-out: MIC",0.1 µg/mL
same,MIC,[8]; 24 h,3 µg/mL
same,MIC,[8]; 48 h,3 µg/mL
same,Mice living after 8th day,[9]; 0.1 mg in each injection,0/10
same,Mortality after 9 h 45,[9]; [15],1
same,Mortality after 22 h 30,[9]; [15],8
same,Mortality after 29 h,[9]; [15],1
same,Mice living after 8th day,[9]; 0.25 mg in each injection,6/10
same,Mortality after 22 h 30,[9]; [16],1
same,Mortality after 25 h 30,[9]; [16],1
same,Mortality after 4 d,[9]; [16],1
same,Mortality after 5 d,[9]; [16],1
same,Mice living after 8th day,[9]; 0.5 mg in each injection,9/10
same,Mortality after 4 d,[9]; [14],1
same,Mice living after 8th day,[9]; 0.75 mg in each injection,10/10
same,Mice living after 8th day,[9]; 1 mg in each injection,10/10
same,MIC,Bacillus subtilis; 24 h,0.1 µg/mL
same,MIC,Bacillus subtilis; 48 h,0.5 µg/mL
same,MIC,[10]; 24 h,1 µg/mL
same,MIC,[10]; 48 h,1 µg/mL
same,MIC,"[11]; Staphylococcus aureus, 54146, 24 h",0.6 µg/mL
same,MIC,"[11]; Staphylococcus aureus, 54146, 48 h",0.6 µg/mL
same,MIC,"[12]; Klebsiella pneumoniae, 52145, 24 h",0.5 µg/mL
same,MIC,"[12]; Klebsiella pneumoniae, 52145, 48 h",0.5 µg/mL
same,MIC,[13]; 24 H,0.5 µg/mL
same,MIC,[13]; 48 H,0.5 µg/mL
